# Laboratory results as given in patent US12612622B2, “Targeted mutagenesis using base editors” (Qi Biodesign Biotechnology Company Limited, priority 2018, dated 2026).
# What was measured:
# OsACC = experiment: Saturated de novo mutagenesis of OsACC CT domain in rice protoplasts, 20 sgRNAs; type: cell-based
# Description: To test the ability of STEME to achieve saturated de novo mutagenesis in rice protoplasts, it has been taken acetyl-coenzyme A carboxylase (OsACC) as an example. ACC is a key enzyme in lipid biosynthesis and its carboxyltransferase (CT) domain is the target of herbicides (FIG. 5 b). Amino acid substitutions in the CT domain can confer herbicides resistance on grass. 20 sgRNAs has been designed, including 11 sgRNAs with forward direction NGD-3′ PAMs and 9 with reverse complement 5′-HCN (H=A, T or C) PAMs spanning a 168 bp DNA sequence that encodes 56 amino acids of the CT domain (FIG. 5b). Using STEME-NG, the sgRNAs covered 90.32% of the cytosines, 40.43% of the adenines, 77.78% of the guanines, and 38.89% of the thymines in the editing windows, corresponding in all to 61.31% of the bases of the coding strand. These sgRNAs has been co-transfected individually together with STEME-NG into rice protoplasts. A3A-PBE-NG and pCas9-NG served as controls. […] No base conversions were detected in the untreated control.
# We also analyzed the amino acid substitutions generated by STEME-NG in the targeted 56 amino acids. […] Of these, twenty-four, twelve, and five amino acids had one, two, and three kinds of amino acids substitution, respectively. […] Similarly, A3A-PBE-NG mutated 33 amino acids, of which twenty-six, six, and one contained one, two, and three kinds of amino acids substitution, respectively. […] Thus, it promises to be a powerful tool for directed evolution of endogenous genes by saturated de novo mutagenesis in situ.
# We used the Japonica rice variety Nipponbare to prepare protoplasts. Protoplast isolation and transformation were performed as described (Shan, Q. et al. Rapid and efficient gene modification in rice and Brachypodium using TALENs. Mol. Plant 6, 1365-1368 (2013).). 10 μg each of nuclease and sgRNA plasmid DNA were introduced into the protoplasts by PEG-mediated transfection, with a mean transformation efficiency of 40-55% as measured by hemocytometer. The transfected protoplasts were incubated at 23° C. and 60 h post-transfection they were collected and genomic DNA extracted for amplicon deep sequencing.
# DNA extraction. The genomic DNA of protoplasts was extracted with a DNA-Quick Plant System (Tiangen Biotech, Beijing, China). Genomic DNA of regenerated rice seedlings was extracted with CTAB, and all the seedlings in each group were sampled together. The targeted site was amplified with specific primers, and the amplicons were purified with an EasyPure PCR Purification Kit (TransGen Biotech, Beijing, China), and quantified with a NanoDrop™ 2000 Spectrophotometer (Thermo Fisher Scientific, Waltham, MA, USA).
# OsACCase gene = experiment: Base editing (pZRH-PBE + individual sgRNAs) of OsACCase functional domain in transgenic M0 rice plants; type: in vivo; conditions: for Frequency of indel (%) / Frequency of substitution (%) / No. of WT / No. of indel / No. of substitution: transgenic M0 plants; for No. of WT / No. of indel / No. of substitution: per sgRNA target
# Description: For individual cloning, the following method is used. APOBEC1, partial nCas9 and UGI sequences (SEQ ID NO: 129) without BsaI were synthesized commercially (GenScript, Nanjing, China) and cloned into the pUC57 (SEQ ID NO: 130) as intermediate vector. […] The full length APOBEC1-nCas9-UGI was excised using XmaJI and SacI, then was subcloned into pHUE411 that had been digested using the same two enzymes. The resultant vector pZRH-PBE (SEQ ID NO: 133) was used to construct sgRNA expression plasmids using restriction enzyme site BsaI.
# [1] = edited allele with the substitution of the same table line
Substance,amino acids with one kind of amino acid substitution (OsACC),amino acids with three kinds of amino acid substitution (OsACC),amino acids with two kinds of amino acid substitution (OsACC),A>G or T>C substitutions (OsACC; coding strand),Cs converted to Ts in the covered bases (OsACC; coding strand) [%],Gs converted to As in the covered bases (OsACC; coding strand) [%],"amino acids substituted (OsACC; of the targeted 56 amino acids, silent, missense, nonsense)","indels (OsACC; rice protoplasts, 20 sgRNAs) [%]",No. of alleles (OsACCase gene; [1]),Frequency of indel (%) (OsACCase gene),Frequency of substitution (%) (OsACCase gene),No. of WT (OsACCase gene),No. of indel (OsACCase gene),No. of substitution (OsACCase gene),No. of alleles (OsACCase gene; unedited target site sequence),"No. of alleles (OsACCase gene; edited allele with the substitution of the same table line, edited allele (SEQ ID NO: 110))","No. of alleles (OsACCase gene; edited allele with the substitution of the same table line, edited allele (SEQ ID NO: 111))","No. of alleles (OsACCase gene; edited allele with the substitution of the same table line, edited allele (SEQ ID NO: 112))","No. of alleles (OsACCase gene; edited allele with the substitution of the same table line, edited allele (SEQ ID NO: 120))","No. of alleles (OsACCase gene; edited allele with the substitution of the same table line, edited allele (SEQ ID NO: 121))"
A3A-PBE-NG: A3A-PBE with nCas9-NG (D10A); protein SEQ ID NO: 186,twenty-six,one,six,no A>G or T>C substitutions were found,89.29,92.86,33,< 0.01,,,,,,,,,,,,
R27: sgRNA in pZRH-PBE; OsACCase target site GAACTCGTGTGATCCTCGAGCGG (SEQ ID NO: 90) (chemistry not fully specified; the letters are possibly those of the target site),,,,,,,,,3,0.0,15.4,11,0,2,1,,,,,
"R28: sgRNA in pZRH-PBE; OsACCase target site GTTACTGGCAGAGCAAAGCTTGG (SEQ ID NO: 92) (expressed or natural sequence; target site or template, no part of the molecule)",,,,,,,,,6,14.3,42.9,3,1,3,0,,,,,
"R29: sgRNA in pZRH-PBE; OsACCase target site CAAACTATCCCTGCTGACCCTGG (SEQ ID NO: 94) (expressed or natural sequence; target site or template, no part of the molecule)",,,,,,,,,,12.0,60.0,7,3,15,8,,,,,
"R30: sgRNA in pZRH-PBE; OsACCase target site ATGGCTGCAGAGCTACGAGGAGG (SEQ ID NO: 99) (expressed or natural sequence; target site or template, no part of the molecule)",,,,,,,,,,12.5,56.3,5,2,9,5,,,,,
"R31: sgRNA in pZRH-PBE; OsACCase target site GACTGCAAAAGGCAATGTTCTGG (SEQ ID NO: 102) (expressed or natural sequence; target site or template, no part of the molecule)",,,,,,,,,1,0.0,5.9,16,0,1,1,,,,,
"R32: sgRNA in pZRH-PBE; OsACCase target site CCCAGACCGCATTGAGTGCTATG (SEQ ID NO: 104) (expressed or natural sequence; target site or template, no part of the molecule)",,,,,,,,,1,10.5,21.1,13,2,4,2,,,,,
"R33: sgRNA in pZRH-PBE; OsACCase target site CCTTTGTCTACATTCCCATGGCT (SEQ ID NO: 107) (expressed or natural sequence; target site or template, no part of the molecule)",,,,,,,,,1,5.9,41.2,9,1,7,1,,,,,
R34: sgRNA in pZRH-PBE; OsACCase target site CCAGTGGGTGTGATAGCTGTGGA (SEQ ID NO: 109) (expressed or natural sequence; the letters are possibly those of the target site),,,,,,,,,,0.0,71.4,4,0,10,7,3,2,4,,
"R35: sgRNA in pZRH-PBE; OsACCase target site CCAAGGGAAATGGTTAGGTGCTA (SEQ ID NO: 113) (guide CCAAGGGAAATGGTTAGGTGGTA; sgRNA expressed from vector pZRH-PBE, further chemistry not given here; the letters are possibly those of the target site)",,,,,,,,,2,0.0,12.5,7,0,1,0,,,,,
R36: sgRNA in pZRH-PBE; OsACCase target site CCTCGAGCGGCTATCCGTGGTGT (SEQ ID NO: 115) (expressed or natural sequence; the letters are possibly those of the target site),,,,,,,,,1,0.0,35.7,9,0,5,3,,,,,
"R37: sgRNA in pZRH-PBE; OsACCase target site CCTGAGAACTCGTGTGATCCTCG (SEQ ID NO: 119) (expressed or natural sequence; target site or template, no part of the molecule)",,,,,,,,,,45.5,18.2,4,5,2,1,,,,1,2
"R38: sgRNA in pZRH-PBE; OsACCase target site CCTGTTGCATACATTCCTGAGAA (SEQ ID NO: 122) (expressed or natural sequence; target site or template, no part of the molecule)",,,,,,,,,,28.6,35.7,5,4,5,4,,,,,
"R39: sgRNA in pZRH-PBE; OsACCase target site CCGTTGGACCCACCGGACAGACC (SEQ ID NO: 125) (expressed or natural sequence; target site or template, no part of the molecule)",,,,,,,,,1,50.0,25.0,1,2,1,1,,,,,
R40: sgRNA in pZRH-PBE; OsACCase target site CCTATTATTCTTACAGGCTATTC (SEQ ID NO: 127) (chemistry not fully specified; the letters are possibly those of the target site),,,,,,,,,1,6.7,13.3,12,1,2,1,,,,,
